# Assay results published in patent US9521847B2, “Synergistic weed control from applications of pyridine carboxylic acid herbicides and synthetic auxin herbicides and/or auxin transport inhibitors” (Dow AgroSciences LLC, priority 2014, dated 2016).
# Read-outs that look alike come from different tables or passages of the source.
# Experiments:
# [1] = tested on: sunflower (Helianthus annus, HELAN); assay: Greenhouse postemergence trial, % visual injury; type: in vivo
# [2] = tested on: common rice (ORYSA); assay: Greenhouse postemergence trial, crop phytotoxicity (% visual injury); settings: for % visual injury, Obs: ORYSA
# [3] = tested on: wild pansy (Viola tricolor, VIOTR); assay: Greenhouse postemergence trial, % visual injury; settings: for % visual injury, Obs: VIOTR; for pest or weed control at 5 g/ha: Viola tricolor, post-emergence, read-out: % visual injury Obs
# [4] = tested on: kochia (KCHSC, Kochia scoparia); assay: Greenhouse postemergence trial, % visual injury; type: in vivo
# Experimental: Following the protocol in Example 1, compound 1 and compound 2 were combined with 2,4 D EHE (EC) and applied to kochia (KCHSC, Kochia scoparia) and the phytotoxicity of the herbicidal compositions was measured.
# Following the protocol in Example 1, compound 1 (EC) and Compound 2 (SC) were combined with diflufenzopyr and applied to kochia (Kochia scoparia, KCHSC) and the phytotoxicity of the herbicidal composition was measured.
# [5] = tested on: ivyleaf morningglory (Ipomoea hederacea, IPOHE); assay: Greenhouse postemergence trial, % visual injury
# [6] = tested on: nutsedge (Cyperus esculentus, CYPES); assay: Greenhouse postemergence trial, % visual injury; type: in vivo; settings: for pest or weed control at 5 g/ha: Cyperus, post-emergence, 5 g ae/ha alone, 20-22 d, read-out: % visual injury Obs
# [7] = tested on: velvetleaf (Abutilon theophrasti, ABUTH); assay: Greenhouse postemergence trial, % visual injury; type: in vivo; settings: for % visual injury Obs: 5 g ae/ha alone, 20-22 d
# [8] = tested on: spring rape (Brassica napus, BRSNN); assay: Greenhouse postemergence trial, % visual injury; settings: for plant injury at 400 g/ha / plant injury at 5 g/ha: Brassica napus, post-emergence; for plant injury at 5 g/ha: read-out: % visual injury Obs
# [9] = tested on: winter wheat (TRZAW); assay: Greenhouse postemergence trial, crop phytotoxicity (% visual injury); settings: for % visual injury, Obs: TRZAW; for % visual injury Obs: crop, 5 g ae/ha alone, 20-22 d
# [10] = tested on: Canadian thistle (CIRAR, Cirsium arvense); assay: Greenhouse postemergence trial, % visual injury; settings: for pest or weed control at 400 g/ha / pest or weed control at 5 g/ha: Cirsium arvense, post-emergence; for % visual injury, Obs: CIRAR; for pest or weed control at 5 g/ha: read-out: % visual injury Obs;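 on all read-outs here: plants sprayed at second to third true leaf stage, injury scored visually 20-22 d later against solvent-blank sprayed controls, 0 meaning no injury and 100 complete kill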
# [11] = tested on: maize (ZEAMX); assay: Greenhouse postemergence trial, crop phytotoxicity (% visual injury)
# [12] = tested on: poinsettia (Euphorbia heterophylla, EPHHL); assay: Greenhouse postemergence trial, % visual injury; settings: for pest or weed control at 5 g/ha: Euphorbia heterophylla, post-emergence, read-out: % visual injury Obs, 5 g ae/ha alone, 20-22 d
# [13] = tested on: wild buckwheat (Polygonum convolvulus, POLCO); assay: Greenhouse postemergence trial, % visual injury; type: in vivo; settings: for % visual injury Obs: 5 g ae/ha alone, 20-22 d
# [14] = tested on: common chickweed (Stellaria media, STEME); assay: Greenhouse postemergence trial, % visual injury; type: in vivo; settings: for % visual injury Obs: 5 g ae/ha alone, 20-22 d
# [15] = tested on: large crabgrass (Digitaria sanguinalis, DIGSA); assay: Greenhouse postemergence trial, % visual injury; type: in vivo; settings: DIGSA, 5 g ae/ha
# [16] = tested on: pigweed (AMARE, Amaranthus retroflexus); assay: Greenhouse postemergence trial, % visual injury; type: in vivo; settings: Amaranthus retroflexus, post-emergence; 5 g ae/ha alone; 20-22 d; read-out: % visual injury Obs
# [17] = tested on: grain sorghum (Sorghum vulgare, SORVU); assay: Greenhouse postemergence trial, % visual injury; type: in vivo; settings: 5 g ae/ha alone; 20-22 d
# [18] = read-out: % visual injury (Obs)
compound,measurement,setting,value
"O=C(O)COc1ccc(Cl)cc1Cl [2,4-D DMA, 2,4-D-dimethylammonium]",% visual injury (Obs),"[1]; 2,4-D DMA 400 g ae/ha",80%
same,% visual injury (Obs),"[2]; 2,4-D DMA 400 g ae/ha",0%
same,% visual injury (Obs),"[3]; 2,4-D DMA 400 g ae/ha",65%
same,% visual injury (Obs),"[4]; 2,4-D DMA 400 g ae/ha",10%
same,% visual injury (Obs),"[5]; 2,4-D DMA 400 g ae/ha",80%
same,% visual injury (Obs),"[6]; 2,4-D DMA 400 g ae/ha",30%
same,% visual injury (Obs),"[7]; 2,4-D DMA 400 g ae/ha",75%
same,plant injury at 400 g/ha,[8]; [18],85%
same,% visual injury (Obs),"[9]; 2,4-D DMA 400 g ae/ha",0%
same,pest or weed control at 400 g/ha,"[10]; read-out: % visual injury (Obs), 2,4-D DMA 400 g ae/ha",70%
same,% visual injury (Obs),"[11]; 2,4-D DMA 400 g ae/ha",0%
"O=C(O)CCCOc1ccc(Cl)cc1Cl [2,4-DB DMA, 4-DB-dimethylammonium (2,4-DB DMA)]",% visual injury (Obs),"[12]; 2,4-DB DMA 400 g ae/ha",10%
same,% visual injury (Obs),"[2]; 2,4-DB DMA 400 g ae/ha",0%
same,% visual injury (Obs),"[4]; 2,4-DB DMA 400 g ae/ha",10%
same,% visual injury (Obs),"[5]; 2,4-DB DMA 400 g ae/ha",70%
same,% visual injury (Obs),"[6]; 2,4-DB DMA 400 g ae/ha",0%
same,plant injury at 400 g/ha,[8]; [18],70%
same,% visual injury (Obs),"[9]; 2,4-DB DMA 400 g ae/ha",10%
same,pest or weed control at 400 g/ha,"[10]; read-out: % visual injury (Obs), 2,4-DB DMA 400 g ae/ha",40%
same,% visual injury (Obs),"[11]; 2,4-DB DMA 400 g ae/ha",0%
same,% visual injury (Obs),"[13]; 2,4-DB DMA 400 g ae/ha",60%
"Cc1cc(Cl)ccc1OCC(=O)O [MCPA DMA, MCPA-dimethylammonium]","% visual injury, Obs",[2]; 400 g ae/ha,0%
same,"% visual injury, Obs",[3]; 400 g ae/ha,30%
same,"% visual injury, Obs","[14]; STEME, 400 g ae/ha",20%
same,plant injury at 400 g/ha,"[8]; read-out: % visual injury, Obs",95%
same,"% visual injury, Obs",[9]; 400 g ae/ha,0%
same,"% visual injury, Obs",[10]; 400 g ae/ha,65%
COc1c(Cl)ccc(-c2nc(C(=O)OCc3ccccc3)c(Cl)c(N)c2F)c1F [Rinskor ™],"% visual injury, Obs","[1]; HELAN, 5 g ae/ha",85%
same,"% visual injury, Obs",[2]; 5 g ae/ha,0%
same,"% visual injury, Obs",[3]; 5 g ae/ha,10%
same,"% visual injury, Obs","[4]; KCHSC, 5 g ae/ha",50%
same,"% visual injury, Obs","[6]; CYPES, 5 g ae/ha",70%
same,"% visual injury, Obs",[15],0%
same,"% visual injury, Obs","[7]; ABUTH, 5 g ae/ha",80%
same,"% visual injury, Obs","[8]; BRSNN, 5 g ae/ha",20%
same,"% visual injury, Obs",[9]; 5 g ae/ha,0%
same,"% visual injury, Obs",[10]; 5 g ae/ha,70%
same,"% visual injury, Obs","[11]; ZEAMX, 5 g ae/ha",0%
same,"% visual injury, Obs","[13]; POLCO, 5 g ae/ha",60%
COC(=O)c1nc(-c2ccc3scnc3c2)c(F)c(N)c1Cl [compound 8],pest or weed control at 5 g/ha,[12],84%
same,pest or weed control at 5 g/ha,[16],78%
same,pest or weed control at 5 g/ha,[3],10%
same,% visual injury Obs,[14],45%
same,% visual injury Obs,[7],20%
same,plant injury at 5 g/ha,[8],63%
same,% visual injury Obs,[9],5%
same,pest or weed control at 5 g/ha,[10],30%
COC(=O)c1nc(-c2ccc3sccc3c2)c(F)c(N)c1Cl [compound 9],pest or weed control at 5 g/ha,[12],60%
same,pest or weed control at 5 g/ha,[3],15%
same,pest or weed control at 5 g/ha,[6],0%
same,plant injury at 5 g/ha,[8],10%
same,% visual injury Obs,[9],0%
same,pest or weed control at 5 g/ha,[10],10%
same,% visual injury Obs,"[11]; crop, 5 g ae/ha alone, 20-22 d",0%
same,% visual injury Obs,[13],25%
Nc1c(F)c(-c2ccc3ccoc3c2)nc(C(=O)O)c1Cl [compound 10],pest or weed control at 5 g/ha,[12],75%
same,% visual injury Obs,[17],5%
same,pest or weed control at 5 g/ha,[3],25%
same,pest or weed control at 5 g/ha,[6],5%
same,% visual injury Obs,[14],70%
same,% visual injury Obs,[7],15%
same,plant injury at 5 g/ha,[8],15%
same,% visual injury Obs,[9],5%
same,pest or weed control at 5 g/ha,[10],15%
same,% visual injury Obs,[13],10%
